In patent US7282486B2, “Crystal forms of azithromycin” (Pfizer Inc, priority 2001, dated 2007):

Tests used:
[1] = Heating of form A: variable temperature powder X-ray diffraction (VT-PXRD) and TGA; assay type: physicochemical
[2] = Dehydration/desolvation temperatures determined by DSC; assay type: physicochemical; settings: DSC analysis at 5° C./min from 30-300° C.
Method: Dehydration/desolvation temperatures were determined by DSC with a heating rate of 5° C./min.

## CCC1OC(=O)C(C)C(O[C@H]2C[C@@](C)(OC)[C@@H](O)C(C)O2)C(C)[C@@H](OC2OC(C)CC(N(C)C)[C@H]2O)C(C)(O)C[C@@H](C)CN(C)[C@H](C)[C@@H](O)[C@]1(C)O (stereo in doubt) [Form L]
[1]; cooled to ambient temperature after heating form A to about 90° C.
  stability of form when cooled to ambient temperature: rapidly reverts to form A

## CC[C@H]1OC(=O)[C@H](C)[C@@H](O[C@H]2C[C@@](C)(OC)[C@@H](O)[C@H](C)O2)[C@H](C)[C@@H](O[C@@H]2O[C@H](C)C[C@H](N(C)C)[C@H]2O)[C@](C)(O)C[C@@H](C)CN(C)[C@H](C)[C@@H](O)[C@]1(C)O [Form A, azithromycin dihydrate]
[1]; at 90° C.
  weight loss by TGA: about 2.5 weight %
[1]; heating, VT-PXRD
  temperature of solid-state conversion of form A to form L: about 90 °C

## CCC1OC(=O)C(C)C(O[C@H]2C[C@@](C)(OC)[C@@H](O)C(C)O2)C(C)[C@@H](OC2OC(C)CC(N(C)C)[C@H]2O)[C@@](C)(O)C[C@@H](C)CN(C)[C@H](C)[C@@H](O)[C@]1(C)O (stereo partly shown) [Form D, azithromycin monohydrate monocyclohexane solvate]
[2]
  broad endotherm (decomposition): 200-280 °C
